# Measured values as given in publication PMC10419252, “Synthesis, Properties, and Biomedical Application of Dicationic Gemini Surfactants with Dodecane Spacer and Carbamate Fragments” (International Journal of Molecular Sciences, 2023).
# “And” between values parts separate entries of the source, which are not always exact repeats. Equal entries are not always repeated. Where two headings read alike, the source gives them in different places.
# Key:
# [1] = Tensiometry (Du Nouy ring), surface tension isotherms; assay type: physicochemical; conditions: for Amin (surface area per surfactant molecule) / Гmax∙10^6 (maximum surface excess) / ∆Gmic (free energy of micellization) / cmctens: 298 K; for calculated adsorption layer thickness: air/water interface; for cmctens: tensiometry
# Protocol: The surface tension isotherms of the micellar solutions were determined using the Du Nouy platinum ring detachment method on a K6 tensiometer (KRŰSS GmbH, Hamburg, Germany). For the experiment, surfactant solutions with a volume of 10 mL were prepared. The measurements were carried out strictly at 298 K in glass beakers, the diameter of which exceeded the diameter of the platinum ring. Surface tension measurements were carried out until stable values were obtained. After each measurement, the ring was degreased in ethanol and thoroughly dried. The cmc of the micellar solutions was determined from the breakpoint on the isotherm of surface tension versus surfactant concentration. The thermodynamic parameters of adsorption and micellization were calculated for all systems based on the obtained tensiometric curves.
# [2] = Conductometry; assay type: physicochemical; conditions: 298 K
# Protocol: The electrical conductivity of the micellar solutions was determined on an InoLab Cond 7110 conductometer (WTW, Weilheim, Germany). For the experiment, surfactant solutions with a volume of 10 mL were prepared. The electrical conductivity of all solutions was recorded at 298 K, and the electrode was washed with purified water after each measurement. The cmc was determined from the breakpoint of the dependence of electrical conductivity on the concentration of surfactants.
# [3] = Pyrene fluorimetry; assay type: physicochemical; conditions: 298 K
# Protocol: To determine cmc by fluorimetry, a hydrophobic probe pyrene was added to a series of surfactant solutions at a concentration of 1 μM. The solutions were kept for 30–40 min for complete solubilization of the probe. The fluorescent emission spectra of pyrene were recorded on an F-7100 fluorimeter (Hitachi, Tokyo, Japan) using 10 × 4 mm quartz cuvette (Hellma Analytics, Müllheim, Germany) with the following settings: λex = 335 nm, λem = 350–600 nm, and scanning speed = 1200 nm/min. The cmc was calculated from the dependence of the pyrene polarity index (the ratio of the intensities of the first (373 nm) and third (383 nm) peaks) on the surfactant concentration.
# [4] = Orange OT solubilization, spectrophotometry (Schott method for Nagg); assay type: physicochemical; conditions: for cmc, Spectrophotometry: OOT; for Nagg (aggregation number): Schott approach, OOT solubilization
# Protocol: (§1) The cmc and the solubilizing capacity (S) of surfactants were determined using the spectral azo dye OOT and the non-steroidal anti-inflammatory drug IND. To obtain a saturated solution, an excess of OOT and IND was added to 2 mL of a surfactant solution, stirred, and kept for 48 and 24 h, respectively. After that, the solutions were filtered using Millex® Syringe Filters (Millipore, Burlington, MA, USA) with a pore size of 450 nm, and the optical density was measured. The absorption spectra were recorded on a Specord 250 Plus spectrophotometer (Analytik Jena AG, Jena, Germany). Quartz cells with a thickness of 1 and 0.5 cm (Hellma Analytics, Müllheim, Germany) were used for measurements.
# (§2) The solubilizing capacity (S) was determined using the following formula:S = b/ε, where b is D/l = f (Csurf) dependency slope (above cmc), ε is the extinction coefficient (17,400 L/mol∙cm for OOT, and the extinction coefficients of IND are determined in GS solutions and presented in Figure S10).
# The OOT solubilization method (Schott method) was used to calculate the micelle Nagg. The Nagg values were calculated for each point on the curve of dependence of the OOT-reduced optical density on the surfactant concentration above the cmc according to the presented formula:[…], where ε is the extinction coefficient of OOT, Csurf is the surfactant concentration above cmc, and D is the optical density.
# [5] = Indomethacin solubilization, spectrophotometry; assay type: physicochemical; conditions: 298 K
# Protocol: as §1, §2
# [6] = tested on: Staphylococcus aureus ATCC 6538P FDA 209P; experiment: Antimicrobial activity (Sa); assay type: cell-based
# Protocol: (§3) The antimicrobial activity of the compounds was tested on Gram-positive Staphylococcus aureus ATCC 6538P FDA 209P (Sa), Bacillus cereus ATCC 10702 NCTC 8035 (Bc), Enterococcus faecalis ATCC 29212 (Ef), and Gram-negative bacteria Escherichia coli ATCC 25922 (Ec), Pseudomonas aeruginosa ATCC 9027 (Pa), including methicillin-resistant strains of S. aureus MRSA-1 (resistant to fluoroquinolones and beta-lactams) and MRSA-2 (resistant to beta-lactams). Antifungal activity was studied against Candida albicans ATCC 10231 (Ca), Trichophyton mentagrophytes var. gypseum 1773 (Tm), and Aspergillus niger BKMF-1119 (An). A more detailed description of the experiment is published in [21].
# [7] = tested on: Bacillus cereus ATCC 10702 NCTC 8035; experiment: Antimicrobial activity (Bc); assay type: cell-based
# Protocol: as §3
# [8] = tested on: Enterococcus faecalis ATCC 29212; experiment: Antimicrobial activity (Ef); assay type: cell-based
# Protocol: as §3
# [9] = tested on: methicillin-resistant S. aureus MRSA-1 (resistant to fluoroquinolones and beta-lactams); experiment: Antimicrobial activity (MRSA-1); assay type: cell-based
# Protocol: as §3
# [10] = tested on: methicillin-resistant S. aureus MRSA-2 (resistant to beta-lactams); experiment: Antimicrobial activity (MRSA-2); assay type: cell-based
# Protocol: as §3
# [11] = tested on: Escherichia coli ATCC 25922; experiment: Antimicrobial activity (Ec); assay type: cell-based
# Protocol: as §3
# [12] = tested on: Pseudomonas aeruginosa ATCC 9027; experiment: Antimicrobial activity (Pa); assay type: cell-based
# Protocol: as §3
# [13] = tested on: Candida albicans ATCC 10231; experiment: Antifungal activity (Ca); assay type: cell-based
# Protocol: as §3
# [14] = tested on: Trichophyton mentagrophytes var. gypseum 1773; experiment: Antifungal activity (Tm); assay type: cell-based
# Protocol: as §3
# [15] = tested on: Aspergillus niger BKMF-1119; experiment: Antifungal activity (An); assay type: cell-based
# Protocol: as §3
# [16] = molecular target: T1, human acetylcholinesterase (hAChE) (Homo sapiens, UniProt P22303); experiment: biochemical; conditions: for SIhBChE/hAChE (selectivity index): IC50 hBChE / IC50 hAChE
# T1 construct: purchased Sigma-Aldrich
# T1 sequence (P22303 32-614): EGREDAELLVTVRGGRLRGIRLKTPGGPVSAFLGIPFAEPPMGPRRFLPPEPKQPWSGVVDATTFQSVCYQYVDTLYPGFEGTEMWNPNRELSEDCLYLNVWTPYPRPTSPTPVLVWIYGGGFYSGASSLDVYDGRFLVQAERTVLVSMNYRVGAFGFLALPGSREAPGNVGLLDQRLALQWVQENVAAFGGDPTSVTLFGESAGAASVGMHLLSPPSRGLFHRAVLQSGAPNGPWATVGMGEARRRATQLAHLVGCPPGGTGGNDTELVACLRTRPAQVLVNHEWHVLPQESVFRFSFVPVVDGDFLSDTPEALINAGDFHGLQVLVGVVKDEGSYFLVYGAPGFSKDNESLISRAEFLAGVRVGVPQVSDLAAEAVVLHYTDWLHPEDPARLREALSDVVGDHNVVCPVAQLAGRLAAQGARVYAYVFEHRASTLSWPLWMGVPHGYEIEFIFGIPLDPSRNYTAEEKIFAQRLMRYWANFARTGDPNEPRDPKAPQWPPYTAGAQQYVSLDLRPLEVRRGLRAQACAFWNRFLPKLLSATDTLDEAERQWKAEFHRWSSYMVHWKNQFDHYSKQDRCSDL
# Protocol: (§4) Stock solutions (0.01 M) of the compounds were dissolved in H2O. The inhibitory activity of compounds against hAChE and hBChE was measured using Ellman’s method. Enzyme-catalyzed hydrolysis was carried out in 0.1 M PBS (pH = 8.0) containing 0.1 nM hAChE or hBChE, 0.1 mM 5,5′-dithiobis-(2-nitrobenzoic acid) and 1mM acetylthiocholine or butyrylthiocholine as substrates. The tested compounds were incubated with the enzyme for 5 min prior to the addition of the substrate. Analyses were performed at 298 K using a Shimadzu UV-1800 spectrophotometer (Shimadzu Co., Kyoto, Japan) at 412 nm. The substrate hydrolysis rate was measured within 2 min. A sample without inhibitor was used as a control (100% cholinesterase activity). A sample without substrate was used as a blank. The experiments were conducted in triplicate. The percentage of enzyme inhibition was determined using OriginPro 8.5 software (OriginLab Corporation, Northampton, MA, USA) by plotting a percentage of the inhibition versus compound concentration. IC50 values (inhibitor concentration required to inhibit enzyme activity by 50%) were determined by the Hill equation: E/Emax=[I]^n/IC50n+[I]^n, where E is enzyme activity in the presence of the compound, and [I] is the compound concentration.
# [17] = molecular target: T2, human butyrylcholinesterase (hBChE) (Homo sapiens, UniProt P06276); experiment: In vitro cholinesterase inhibition, Ellman's method (hBChE); assay type: biochemical
# T2 construct: purchased Sigma-Aldrich
# T2 sequence (P06276 29-602): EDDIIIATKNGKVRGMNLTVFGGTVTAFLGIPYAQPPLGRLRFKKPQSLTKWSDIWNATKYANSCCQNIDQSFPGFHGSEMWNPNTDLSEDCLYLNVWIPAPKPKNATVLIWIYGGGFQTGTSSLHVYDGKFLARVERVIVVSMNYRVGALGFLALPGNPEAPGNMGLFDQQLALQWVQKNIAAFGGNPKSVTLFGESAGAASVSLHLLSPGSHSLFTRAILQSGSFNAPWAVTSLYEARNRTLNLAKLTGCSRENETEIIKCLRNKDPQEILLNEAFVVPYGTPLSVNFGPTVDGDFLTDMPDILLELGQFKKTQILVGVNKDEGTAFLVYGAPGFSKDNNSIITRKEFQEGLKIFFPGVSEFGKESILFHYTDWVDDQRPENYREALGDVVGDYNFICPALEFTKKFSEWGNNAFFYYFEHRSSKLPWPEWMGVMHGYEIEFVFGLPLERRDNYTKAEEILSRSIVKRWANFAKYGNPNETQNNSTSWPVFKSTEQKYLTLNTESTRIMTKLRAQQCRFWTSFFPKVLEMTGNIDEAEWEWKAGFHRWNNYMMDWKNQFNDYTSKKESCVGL
# Protocol: as §4
# [18] = Electrode potential measurement with Br− selective electrode (potentiometry); assay type: physicochemical; conditions: 298 K
# Protocol: The electrode potential measurements were performed for the Br^− counterion using the I-160MI laboratory ionomer (JSC Scientific and Production Association of the Measuring Equipment, Moscow, Russia). Br^− selective electrode (ELIS-131Br) and a reference electrode (ESr-10101) were used for measurement of the electromotive force (ΔE) of aqueous solution of surfactants (the concentration from 0.02 to 0.5 mM for 12-12-12(Et); from 0.002 to 0.05 mM for 14-12-14(Et)). To calibrate the ionomer, a series of KBr solutions were prepared in the concentration range of 0.1 mM to 100 mM.
# β = 0.5(2Ct − CBr^−)/(Ct − cmc).
# [19] = alkyltrimethylammonium bromides; cited from earlier work
smiles,measurement,setting,value
CCCCCCCCCC[N+](C)(CCCCCCCCCCCC[N+](C)(CCCCCCCCCC)CCOC(=O)NCC)CCOC(=O)NCC (centres unmarked) [10-12-10(Et)],Amin (surface area per surfactant molecule),[1],2.34 nm^2
same,Гmax∙10^6 (maximum surface excess),[1],0.71 mol∙m^−2
same,∆Gmic (free energy of micellization),[1],-6.09 kcal/mol
same,calculated adsorption layer thickness,[1],0.7 nm
same,cmctens,[1],1 mM and 1 ± 0.03 mM
same,cmccond,[2],1.5 mM and 1.5 ± 0.04 mM
same,βcond (degree of counterion binding),[2],0.41
same,"cmc, Fluorimetry",[3],0.9 mM and 0.9 ± 0.03 mM
same,"S (solubilizing capacity), OOT",[4],0.021 molOOT/molGS
same,"S (solubilizing capacity), OOT",[4]; 298 K,0.021 molprobe/molGS
same,"cmc, Spectrophotometry",[4]; 298 K,1.5 ± 0.1 mM
same,Nagg (aggregation number),[4]; 298 K,50
same,"S (solubilizing capacity), IND",[5],0.13 molprobe/molGS
same,"MBC, Sa",[6],0.5 ± 0.04 µg/mL
same,"MIC, Sa",[6],0.5 ± 0.03 µg/mL
same,"MBC, Bc",[7],0.5 ± 0.03 µg/mL
same,"MIC, Bc",[7],0.5 ± 0.04 µg/mL
same,"MBC, Ef",[8],0.5 ± 0.04 µg/mL
same,"MIC, Ef",[8],0.5 ± 0.03 µg/mL
same,"MBC, MRSA-1",[9],1.9 ± 0.1 µg/mL
same,"MIC, MRSA-1",[9],0.5 µg/mL and 0.5 ± 0.03 µg/mL
same,"MBC, MRSA-2",[10],3.9 ± 0.3 µg/mL
same,"MIC, MRSA-2",[10],0.5 µg/mL and 0.5 ± 0.03 µg/mL
same,"MBC, Ec",[11],0.5 ± 0.03 µg/mL
same,"MIC, Ec",[11],0.5 ± 0.03 µg/mL
same,"MBC, Pa",[12],3.9 ± 0.3 µg/mL
same,"MIC, Pa",[12],1.9 ± 0.1 µg/mL
same,"MFC, Ca",[13],15.6 ± 1.2 µg/mL
same,"MIC, Ca",[13],0.9 ± 0.07 µg/mL
same,"MFC, Tm",[14],15.6 ± 1.3 µg/mL
same,"MIC, Tm",[14],0.9 ± 0.07 µg/mL
same,"MFC, An",[15],>250 µg/mL
same,"MIC, An",[15],250 ± 19 µg/mL
same,IC50,[16],43.1 ± 0.9 nM
same,SIhBChE/hAChE (selectivity index),[16],0.44
same,IC50,[17],19 ± 5 nM
CCCCCCCCCCCCCC[N+](C)(CCCCCCCCCCCC[N+](C)(CCCCCCCCCCCCCC)CCOC(=O)NCC)CCOC(=O)NCC (centres unmarked) [14-12-14(Et)],Amin (surface area per surfactant molecule),[1],0.52 nm^2
same,Гmax∙10^6 (maximum surface excess),[1],3.21 mol∙m^−2
same,∆Gmic (free energy of micellization),[1],-8.84 kcal/mol
same,calculated adsorption layer thickness,[1],3.3 nm
same,cmctens,[1],0.013 mM and 0.013 ± 0.0007 mM
same,cmccond,[2],0.05 mM and 0.05 ± 0.0013 mM
same,βcond (degree of counterion binding),[2],0.44
same,βpot (degree of counterion binding),[18],0.3
same,"cmc, Fluorimetry",[3],0.014 mM and 0.014 ± 0.0004 mM
same,"S (solubilizing capacity), OOT",[4],0.047 molOOT/molGS
same,"S (solubilizing capacity), OOT",[4]; 298 K,0.047 molprobe/molGS
same,"cmc, Spectrophotometry",[4]; 298 K,0.045 ± 0.003 mM
same,Nagg (aggregation number),[4]; 298 K,16
same,"S (solubilizing capacity), IND",[5],1.51 molprobe/molGS
same,MBC,"[6]; Staphylococcus aureus, read-out: MBC, Sa",3.9 ± 0.3 µg/mL
same,MIC,"[6]; Staphylococcus aureus, read-out: MIC, Sa",3.9 ± 0.2 µg/mL
same,MBC,"[7]; Bacillus cereus, read-out: MBC, Bc",125 ± 9 µg/mL
same,MIC,"[7]; Bacillus cereus, read-out: MIC, Bc",125 ± 10 µg/mL
same,MBC,"[8]; Enterococcus faecalis, ATCC29212, read-out: MBC, Ef",3.9 ± 0.2 µg/mL
same,MIC,"[8]; Enterococcus faecalis, ATCC29212, read-out: MIC, Ef",3.9 ± 0.3 µg/mL
same,MBC,"[9]; Staphylococcus aureus, MRSA, read-out: MBC, MRSA-1",7.8 ± 0.6 µg/mL
same,MIC,"[9]; Staphylococcus aureus, MRSA, read-out: MIC, MRSA-1",7.8 ± 0.6 µg/mL
same,MBC,"[10]; Staphylococcus aureus, MRSA, read-out: MBC, MRSA-2",7.8 ± 0.7 µg/mL
same,MIC,"[10]; Staphylococcus aureus, MRSA, read-out: MIC, MRSA-2",7.8 ± 0.7 µg/mL
same,MBC,"[11]; Escherichia coli, ATCC25922, read-out: MBC, Ec",31.3 ± 2.6 µg/mL
same,MIC,"[11]; Escherichia coli, ATCC25922, read-out: MIC, Ec",31.3 ± 2.5 µg/mL
same,MBC,"[12]; Pseudomonas aeruginosa, ATCC9027, read-out: MBC, Pa",125 ± 10 µg/mL
same,MIC,"[12]; Pseudomonas aeruginosa, ATCC9027, read-out: MIC, Pa",125 ± 10 µg/mL
same,MFC,"[13]; Candida albicans, ATCC10231, read-out: MFC, Ca",250 ± 21 µg/mL
same,MIC,"[13]; Candida albicans, ATCC10231, read-out: MIC, Ca",250 ± 19 µg/mL
same,MFC,"[14]; Trichophyton mentagrophytes, read-out: MFC, Tm",250 ± 18 µg/mL
same,MIC,"[14]; Trichophyton mentagrophytes, read-out: MIC, Tm",250 ± 19 µg/mL
same,MFC,"[15]; Aspergillus niger, BKMF1119, read-out: MFC, An",> 250 µg/mL
same,MIC,"[15]; Aspergillus niger, BKMF1119, read-out: MIC, An",> 250 µg/mL
same,IC50,[16],11 ± 0.5 nM
same,SIhBChE/hAChE (selectivity index),[16],131
same,IC50,[17],1440 ± 520 nM
CCCCCCCCCCCC[N+](C)(C)C.[Br-] [C12TAB],Nagg,[19],55
